Measured values reported in patent publication US20260356817A1, “AMINOPYRIMIDINE AND AMINOTRIAZINE DERIVATIVES AS MYC PROTEIN MODULATORS” (Sanford Burnham Prebys Medical Discovery Institute, priority 2022, published 2026).
Read-outs that look alike come from different tables or passages of the source.

System: Myc
Experiment: Myc inhibition assay: Myc expression per cell by anti-Myc immunofluorescence, high-content imaging
Format: cell-based, human (patient-derived medulloblastoma xenograft cells)
Conditions: medulloblastoma PDX cells, 4 h
Text: To identify Myc inhibitors, cells isolated from patient-derived orthotopic xenografts (PDXs) from patients with Myc-driven medulloblastoma were used. Specifically, PDX cells were propagated by transplantation directly into the cerebellum of immunodeficient (NSG) mice and were never passaged in vitro in order to maintain properties of the tumor from which they were derived. Tumor tissues were isolated from tumor-bearing animals, dissociated into a single-cell suspension, resuspended in serum-free media, and immediately plated in 384 well plates. After overnight recovery, compounds were added to each well, and cells were incubated for 4 hours before being fixed and stained with anti-Myc antibodies and with DAPI to label nuclei. Cells were then analyzed using high-content imaging to determine the levels of Myc expression per cell and IC50 values of the compounds.

[1] = Table 1, read-out: IC50 (Myc inhibition)
[2] = Table 2, read-out: MYC Inhibition IC50

| IC50 [1] [µM] | IC50 [2] [µM] | Structure (SMILES) |
| --- | --- | --- |
| 1 to 10 | 1 to 10 | COc1cccc(Nc2nccc(-c3ccnc(OC)c3)n2)c1 [Compound 192, N-(3-methoxyphenyl)-4-(2-methoxypyridin-4-yl)pyrimidin-2-amine] |
| < 0.2 | < 0.2 | c1cc(Nc2nccc(-c3ccc4[nH]cnc4c3)n2)cc(N2CCOCC2)c1 [Compound 102, 4-(1H-benzo[d]imidazol-5-yl)-N-(3-morpholinophenyl)pyrimidin-2-amine] |
| 10 to 100 | 10 to 100 | COc1cc(-c2ccnc(Oc3ccccc3)n2)ccn1 [Compound 235, 4-(2-methoxypyridin-4-yl)-2-phenoxypyrimidine] |
| < 0.2 | < 0.2 | Cc1ccc(Nc2nccc(-c3ccc4[nH]cnc4c3)n2)cc1C(F)(F)F [Compound 265, 4-(1H-benzo[d]imidazol-5-yl)-N-(4-methyl-3-(trifluoromethyl)phenyl)pyrimidin-2-amine] |
| 1 to 10 | 1 to 10 | Oc1cc(-c2ncnc(Nc3ccccc3)n2)ccn1 [Compound 233, 4-(4-(phenylamino)-1,3,5-triazin-2-yl)pyridin-2-ol] |
| 10 to 100 | 10 to 100 | Oc1cccc(-c2ccnc(Nc3ccccc3)n2)n1 [Compound 226, 6-(2-(phenylamino)pyrimidin-4-yl)pyridin-2-ol] |
| 1 to 10 | 1 to 10 | CC(C)(C)c1ccc(Nc2nccc(-c3ccc4[nH]cnc4c3)n2)cc1 [Compound 72, 4-(1H-benzo[d]imidazol-5-yl)-N-(4-(tert-butyl)phenyl)pyrimidin-2-amine] |
| 1 to 10 | 1 to 10 | Oc1ccc(-c2ccnc(Nc3cccc(F)c3)n2)cc1 [Compound 194, 4-(2-((3-fluorophenyl)amino)pyrimidin-4-yl)phenol] |
| 0.2 to 1 | 0.2 to 1 | Cc1cccc(Nc2nccc(-c3ccnc(O)c3)n2)c1 [Compound 159, 4-(2-(m-tolylamino)pyrimidin-4-yl)pyridin-2-ol] |
| 1 to 10 | 1 to 10 | COc1ccc(-c2ccnc(Nc3cccc(F)c3)n2)s1 [Compound 176, N-(3-fluorophenyl)-4-(5-methoxythiophen-2-yl)pyrimidin-2-amine] |
| 1 to 10 | 1 to 10 | O=C1CNCCN1c1cccc(Nc2nccc(-c3ccc4[nH]cnc4c3)n2)c1 [Compound 63, 1-(3-((4-(1H-benzo[d]imidazol-5-yl)pyrimidin-2-yl)amino)phenyl)piperazin-2-one] |
| 0.2 to 1 | 0.2 to 1 | c1ccc(Cn2cc(Nc3nccc(-c4ccc5[nH]cnc5c4)n3)cn2)cc1 [Compound 37, 4-(1H-benzo[d]imidazol-5-yl)-N-(1-benzyl-1H-pyrazol-4-yl)pyrimidin-2-amine] |
| 0.2 to 1 | 0.2 to 1 | Fc1cc2[nH]cnc2cc1-c1ccnc(Nc2cccc(C(F)(F)F)c2)n1 [Compound 126, 4-(6-fluoro-1H-benzo[d]imidazol-5-yl)-N-(3-(trifluoromethyl)phenyl)pyrimidin-2-amine] |
| 10 to 100 | 10 to 100 | COc1nccc(-c2ccnc(Nc3ccccc3)n2)n1 [Compound 163, 2′-Methoxy-N-phenyl-[4,4′-bipyrimidin]-2-amine] |
| 1 to 10 | 1 to 10 | O=C(O)c1cccc(Nc2nccc(-c3ccc4[nH]cnc4c3)n2)c1 [Compound 28, 3-((4-(1H-benzo[d]imidazol-5-yl)pyrimidin-2-yl)amino)benzoic acid] |
| 1 to 10 | 1 to 10 | Cn1cnc2cc(-c3ccnc(Nc4cccc(C(F)(F)F)c4)n3)ccc21 [Compound 34, 4-(1-methyl-1H-benzo[d]imidazol-5-yl)-N-(3-(trifluoromethyl)phenyl)pyrimidin-2-amine] |
| 0.2 to 1 | 0.2 to 1 | FC(F)(F)Oc1cccc(Nc2nccc(-c3ccc4[nH]cnc4c3)n2)c1 [Compound 100, 4-(1H-benzo[d]imidazol-5-yl)-N-(3-(trifluoromethoxy)phenyl)pyrimidin-2-amine] |
| 1 to 10 | 1 to 10 | COc1cc(-c2ccnc(Nc3cccc(C)c3)n2)ccn1 [Compound 160, 4-(2-methoxypyridin-4-yl)-N-(m-tolyl)pyrimidin-2-amine] |
| 0.2 to 1 | 0.2 to 1 | CC(C)(C)c1cccc(Nc2nccc(-c3ccnc(O)c3)n2)c1 [Compound 149, 4-(2-((3-(tert-butyl)phenyl)amino)pyrimidin-4-yl)pyridin-2-ol] |
| < 0.2 | < 0.2 | Fc1cc(Nc2nccc(-c3ccc4[nH]cnc4c3)n2)cc(F)c1F [Compound 258, 4-(1H-benzo[d]imidazol-5-yl)-N-(3,4,5-trifluorophenyl)pyrimidin-2-amine] |
| 0.2 to 1 | 0.2 to 1 | CC(=O)Nc1cccc(Nc2nccc(-c3ccc4[nH]cnc4c3)n2)c1 [Compound 2, N-(3-((4-(1H-benzo[d]imidazol-5-yl)pyrimidin-2-yl)amino)phenyl)acetamide] |

| IC50 [1] [µM] | IC50 [2] [µM] | Structure (SMILES) |
| --- | --- | --- |
| 0.2 to 1 | 0.2 to 1 | C#Cc1cccc(Nc2nccc(-c3ccc4[nH]cnc4c3)n2)c1 [Compound 93, 4-(1H-benzo[d]imidazol-5-yl)-N-(3-ethynylphenyl)pyrimidin-2-amine] |
| < 0.2 | < 0.2 | c1ccc(-c2cccc(Nc3nccc(-c4ccc5[nH]cnc5c4)n3)c2)nc1 [Compound 44, 4-(1H-benzo[d]imidazol-5-yl)-N-(3-(pyridin-2-yl)phenyl)pyrimidin-2-amine] |
| 10 to 100 | 10 to 100 | Oc1cc(Nc2ccnc(Nc3cccc(F)c3)n2)ccn1 [Compound 118, 4-((2-((3-fluorophenyl)amino)pyrimidin-4-yl)amino)pyridin-2-ol] |
| 10 to 100 | 10 to 100 | COc1cc(-c2ccnc(Nc3ccnc(C(F)(F)F)c3)n2)ccn1 [Compound 157, 4-(2-methoxypyridin-4-yl)-N-(2-(trifluoromethyl)pyridin-4-yl)pyrimidin-2-amine] |
| 1 to 10 | 1 to 10 | Oc1ccc(Nc2nccc(-c3ccc4[nH]cnc4c3)n2)cn1 [Compound 29, 5-((4-(1H-benzo[d]imidazol-5-yl)pyrimidin-2-yl)amino)pyridin-2-ol] |
| 10 to 100 | 10 to 100 | Fc1cccc(Nc2nccc(-c3ccc4[nH]ccc4c3)n2)c1 [Compound 202, N-(3-fluorophenyl)-4-(1H-indol-5-yl)pyrimidin-2-amine] |
| 1 to 10 | 1 to 10 | Oc1cccc(-c2ccnc(Nc3ccccc3)n2)c1 [Compound 244, 3-(2-(phenylamino)pyrimidin-4-yl)phenol] |
| 1 to 10 | 1 to 10 | Oc1cc(-c2ccnc(Nc3cccc(C(F)(F)F)c3)n2)ncn1 [Compound 131, 2′-((3-(trifluoromethyl)phenyl)amino)-[4,4′-bipyrimidin]-6-ol] |
| < 0.2 | < 0.2 | c1cc(Nc2nccc(-c3ccc4[nH]cnc4c3)n2)cc(-c2ccn[nH]2)c1 [Compound 261, N-(3-(1H-pyrazol-5-yl)phenyl)-4-(1H-benzo[d]imidazol-5-yl)pyrimidin-2-amine] |
| 10 to 100 | 10 to 100 | COc1cncc(-c2ccnc(N(C)c3ccccc3)n2)c1 [Compound 224, 4-(5-methoxypyridin-3-yl)-N-methyl-N-phenylpyrimidin-2-amine] |
| < 0.2 | < 0.2 | CCS(=O)(=O)c1cccc(Nc2nccc(-c3ccc4[nH]cnc4c3)n2)c1 [Compound 5, 4-(1H-benzo[d]imidazol-5-yl)-N-(3-(ethylsulfonyl)phenyl)pyrimidin-2-amine] |
| 10 to 100 | 10 to 100 | COc1cccc(-c2cccc(Nc3ccccc3)n2)c1 [Compound 245, 6-(3-Methoxyphenyl)-N-phenylpyridin-2-amine] |
| 10 to 100 | 10 to 100 | Oc1cc(-c2ccnc(Cc3ccccc3)n2)ccn1 [Compound 229, 4-(2-Benzylpyrimidin-4-yl)pyridin-2-ol] |
| 0.2 to 1 | 0.2 to 1 | CC(C)(C)n1cc(Nc2nccc(-c3ccc4nc[nH]c4c3)n2)cn1 [Compound 276, 4-(1H-benzo[d]imidazol-6-yl)-N-(1-(tert-butyl)-1H-pyrazol-4-yl)pyrimidin-2-amine] |
| 10 to 100 | 10 to 100 | Oc1cccc(-c2ccnc(Nc3cccc(C(F)(F)F)c3)n2)c1 [Compound 173, 3-(2-((3-(trifluoromethyl)phenyl)amino)pyrimidin-4-yl)phenol] |
| < 0.2 | < 0.2 | CC(=O)c1cccc(Nc2nccc(-c3ccc4[nH]cnc4c3)n2)c1 [Compound 256, 1-(3-((4-(1H-benzo[d]imidazol-5-yl)pyrimidin-2-yl)amino)phenyl)ethan-1-one] |
| 1 to 10 | 1 to 10 | Oc1ccc(-c2ccnc(Nc3ccccc3)n2)cn1 [Compound 238, 5-(2-(phenylamino)pyrimidin-4-yl)pyridin-2-ol] |
| 10 to 100 | 10 to 100 | O=c1[nH]c2ccc(-c3ccnc(Nc4cccc(C(F)(F)F)c4)n3)cc2[nH]1 [Compound 116, 5-(2-((3-(trifluoromethyl)phenyl)amino)pyrimidin-4-yl)-1H-benzo[d]imidazol-2(3H)-one] |
| 1 to 10 | 1 to 10 | c1cc(-c2ccc3[nH]cnc3c2)nc(Nc2cnn(C3CCOCC3)c2)n1 [Compound 6, 4-(1H-benzo[d]imidazol-5-yl)-N-(1-(tetrahydro-2H-pyran-4-yl)-1H-pyrazol-4-yl)pyrimidin-2-amine] |
| < 0.2 | < 0.2 | CCc1cccc(Nc2nccc(-c3cnc4nc[nH]c4c3)n2)c1 [Compound 140, N-(3-ethylphenyl)-4-(1H-imidazo[4,5-b]pyridin-6-yl)pyrimidin-2-amine] |
| 10 to 100 | 10 to 100 | COc1cccc(-c2ccnc(Nc3ccccc3)n2)c1 [Compound 253, 4-(3-methoxyphenyl)-N-phenylpyrimidin-2-amine] |
